# In PubChem BioAssay (NCI):
#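 Values below derive from 48-hour exposures of cells grown in 96-well plates, with endpoints linearly interpolated between the two concentrations bracketing the appropriate inhibition level. GI50: concentration for 50% inhibition of growth. The concentration for full growth arrest is given as TGI.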
# Experiments:
# Assay in all cases: NCI anticancer screen, dose series, 48 h
# 786-0 renal = test system: 786-0 renal
# A498 renal = test system: A498 renal
# A549 NSCLC = test system: A549 NSCLC
# ACHN renal = test system: ACHN renal
# BT-549 breast = test system: BT-549 breast
# CAKI-1 renal = test system: CAKI-1 renal
# CCRF-CEM leukemia = test system: CCRF-CEM leukemia
# COLO 205 colon = test system: COLO 205 colon
# DU-145 prostate = test system: DU-145 prostate
# EKVX NSCLC = test system: EKVX NSCLC
# HCC-2998 colon = test system: HCC-2998 colon
# HCT-116 colon = test system: HCT-116 colon
# HCT-15 colon = test system: HCT-15 colon
# HL-60(TB) leukemia = test system: HL-60(TB) leukemia
# HOP-62 NSCLC = test system: HOP-62 NSCLC
# HOP-92 NSCLC = test system: HOP-92 NSCLC
# HS 578T breast = test system: HS 578T breast
# HT29 colon = test system: HT29 colon
# IGROV1 ovarian = test system: IGROV1 ovarian
# K-562 leukemia = test system: K-562 leukemia
# KM12 colon = test system: KM12 colon
# LOX IMVI melanoma = test system: LOX IMVI melanoma
# M14 melanoma = test system: M14 melanoma
# MALME-3M melanoma = test system: MALME-3M melanoma
# MCF7 breast = test system: MCF7 breast
# MDA-MB-231 breast = test system: MDA-MB-231 breast
# MDA-MB-435 = test system: MDA-MB-435
# MOLT-4 leukemia = test system: MOLT-4 leukemia
# NCI-H226 lung = test system: NCI-H226 lung
# NCI-H23 lung = test system: NCI-H23 lung
# NCI-H460 lung = test system: NCI-H460 lung
# NCI-H522 lung = test system: NCI-H522 lung
# NCI/ADR-RES ovarian = test system: NCI/ADR-RES ovarian
# OVCAR-3 ovarian = test system: OVCAR-3 ovarian
# OVCAR-4 ovarian = test system: OVCAR-4 ovarian
# OVCAR-5 ovarian = test system: OVCAR-5 ovarian
# OVCAR-8 ovarian = test system: OVCAR-8 ovarian
# PC-3 prostate = test system: PC-3 prostate
# RPMI-8226 leukemia = test system: RPMI-8226 leukemia
# RXF 393 renal = test system: RXF 393 renal
# SF-268 CNS = test system: SF-268 CNS
# SF-295 CNS = test system: SF-295 CNS
# SF-539 CNS = test system: SF-539 CNS
# SK-MEL-2 melanoma = test system: SK-MEL-2 melanoma
# SK-MEL-28 melanoma = test system: SK-MEL-28 melanoma
# SK-MEL-5 melanoma = test system: SK-MEL-5 melanoma
# SK-OV-3 ovarian = test system: SK-OV-3 ovarian
# SN12C renal = test system: SN12C renal
# SNB-19 CNS = test system: SNB-19 CNS
# SNB-75 CNS = test system: SNB-75 CNS
# SR leukemia = test system: SR leukemia
# SW-620 colon = test system: SW-620 colon
# T-47D breast = test system: T-47D breast
# TK-10 renal = test system: TK-10 renal
# U251 CNS = test system: U251 CNS
# UACC-257 melanoma = test system: UACC-257 melanoma
# UACC-62 melanoma = test system: UACC-62 melanoma
# UO-31 renal = test system: UO-31 renal
# MDA-N = test system: MDA-N
smiles,measurement,setting,value
CSc1nc2c(c(=O)n1C)C(c1ccccc1)C1=C(N2)/C(=C/c2ccccc2)CCC1 (stereo not given),GI50,786-0 renal,11.7 µM
same,TGI,786-0 renal,56.4 µM
same,GI50,A498 renal,16.8 µM
same,TGI,A498 renal,88.4 µM
same,GI50,A549 NSCLC,> 100 µM
same,TGI,A549 NSCLC,> 100 µM
same,GI50,ACHN renal,3.56 µM
same,TGI,ACHN renal,50.5 µM
same,GI50,BT-549 breast,11.9 µM
same,TGI,BT-549 breast,> 100 µM
same,GI50,CAKI-1 renal,69 µM
same,TGI,CAKI-1 renal,> 100 µM
same,GI50,CCRF-CEM leukemia,4.62 µM
same,TGI,CCRF-CEM leukemia,> 100 µM
same,GI50,COLO 205 colon,10.3 µM
same,TGI,COLO 205 colon,> 100 µM
same,GI50,DU-145 prostate,8.02 µM
same,TGI,DU-145 prostate,> 100 µM
same,GI50,EKVX NSCLC,24.2 µM
same,TGI,EKVX NSCLC,> 100 µM
same,GI50,HCC-2998 colon,> 100 µM
same,TGI,HCC-2998 colon,> 100 µM
same,GI50,HCT-116 colon,3.41 µM
same,TGI,HCT-116 colon,14.3 µM
same,GI50,HCT-15 colon,4.1 µM
same,TGI,HCT-15 colon,> 100 µM
same,GI50,HL-60(TB) leukemia,0.721 µM
same,TGI,HL-60(TB) leukemia,48.4 µM
same,GI50,HOP-62 NSCLC,20 µM
same,TGI,HOP-62 NSCLC,> 100 µM
same,GI50,HOP-92 NSCLC,36.6 µM
same,TGI,HOP-92 NSCLC,> 100 µM
same,GI50,HS 578T breast,10.2 µM
same,TGI,HS 578T breast,93.8 µM
same,GI50,HT29 colon,3.58 µM
same,TGI,HT29 colon,71 µM
same,GI50,IGROV1 ovarian,13.6 µM
same,TGI,IGROV1 ovarian,> 100 µM
same,GI50,K-562 leukemia,2.86 µM
same,TGI,K-562 leukemia,> 100 µM
same,GI50,KM12 colon,18.2 µM
same,TGI,KM12 colon,> 100 µM
same,GI50,LOX IMVI melanoma,3.01 µM
same,TGI,LOX IMVI melanoma,12.8 µM
same,GI50,M14 melanoma,6.56 µM
same,TGI,M14 melanoma,> 100 µM
same,GI50,MALME-3M melanoma,5.87 µM
same,TGI,MALME-3M melanoma,> 100 µM
same,GI50,MCF7 breast,7.72 µM
same,TGI,MCF7 breast,> 100 µM
same,GI50,MDA-MB-231 breast,17.4 µM
same,TGI,MDA-MB-231 breast,> 100 µM
same,GI50,MDA-MB-435,3.99 µM
same,TGI,MDA-MB-435,> 100 µM
same,GI50,MOLT-4 leukemia,4.9 µM
same,TGI,MOLT-4 leukemia,> 100 µM
same,GI50,NCI-H226 lung,18.4 µM
same,TGI,NCI-H226 lung,> 100 µM
same,GI50,NCI-H23 lung,7.1 µM
same,TGI,NCI-H23 lung,> 100 µM
same,GI50,NCI-H460 lung,9.87 µM
same,TGI,NCI-H460 lung,> 100 µM
same,GI50,NCI-H522 lung,5.93 µM
same,TGI,NCI-H522 lung,> 100 µM
same,GI50,NCI/ADR-RES ovarian,4.07 µM
same,TGI,NCI/ADR-RES ovarian,> 100 µM
same,GI50,OVCAR-3 ovarian,4.41 µM
same,TGI,OVCAR-3 ovarian,> 100 µM
same,GI50,OVCAR-4 ovarian,30.8 µM
same,TGI,OVCAR-4 ovarian,> 100 µM
same,GI50,OVCAR-5 ovarian,71.7 µM
same,TGI,OVCAR-5 ovarian,> 100 µM
same,GI50,OVCAR-8 ovarian,3.97 µM
same,TGI,OVCAR-8 ovarian,> 100 µM
same,GI50,PC-3 prostate,7.11 µM
same,TGI,PC-3 prostate,> 100 µM
same,GI50,RPMI-8226 leukemia,5.31 µM
same,TGI,RPMI-8226 leukemia,> 100 µM
same,GI50,RXF 393 renal,2.35 µM
same,TGI,RXF 393 renal,6.21 µM
same,GI50,SF-268 CNS,10.7 µM
same,TGI,SF-268 CNS,> 100 µM
same,GI50,SF-295 CNS,4.67 µM
same,TGI,SF-295 CNS,34 µM
same,GI50,SF-539 CNS,9.98 µM
same,TGI,SF-539 CNS,81.5 µM
same,GI50,SK-MEL-2 melanoma,9.48 µM
same,TGI,SK-MEL-2 melanoma,42.6 µM
same,GI50,SK-MEL-28 melanoma,> 100 µM
same,TGI,SK-MEL-28 melanoma,> 100 µM
same,GI50,SK-MEL-5 melanoma,3.58 µM
same,TGI,SK-MEL-5 melanoma,> 100 µM
same,GI50,SK-OV-3 ovarian,25.1 µM
same,TGI,SK-OV-3 ovarian,78.7 µM
same,GI50,SN12C renal,53 µM
same,TGI,SN12C renal,> 100 µM
same,GI50,SNB-19 CNS,22.4 µM
same,TGI,SNB-19 CNS,> 100 µM
same,GI50,SNB-75 CNS,11.3 µM
same,TGI,SNB-75 CNS,29.7 µM
same,GI50,SR leukemia,1.89 µM
same,TGI,SR leukemia,> 100 µM
same,GI50,SW-620 colon,2.53 µM
same,TGI,SW-620 colon,6.81 µM
same,GI50,T-47D breast,4.15 µM
same,TGI,T-47D breast,> 100 µM
same,GI50,TK-10 renal,20.9 µM
same,TGI,TK-10 renal,> 100 µM
same,GI50,U251 CNS,3.99 µM
same,TGI,U251 CNS,34.9 µM
same,GI50,UACC-257 melanoma,6.63 µM
same,TGI,UACC-257 melanoma,> 100 µM
same,GI50,UACC-62 melanoma,7.95 µM
same,TGI,UACC-62 melanoma,> 100 µM
same,GI50,UO-31 renal,1.69 µM
same,TGI,UO-31 renal,30.7 µM
COc1ccc(/C=C/c2ccnc3ccccc23)cc1OC,TGI,786-0 renal,> 100 µM
same,TGI,A498 renal,23.6 µM
same,TGI,A549 NSCLC,31.2 µM
same,TGI,ACHN renal,> 100 µM
same,TGI,CAKI-1 renal,29.3 µM
same,TGI,CCRF-CEM leukemia,31 µM
same,TGI,COLO 205 colon,27.1 µM
same,TGI,DU-145 prostate,26.6 µM
same,TGI,EKVX NSCLC,27.9 µM
same,TGI,HCC-2998 colon,> 100 µM
same,TGI,HCT-116 colon,25.1 µM
same,TGI,HCT-15 colon,30.4 µM
same,TGI,HL-60(TB) leukemia,25.5 µM
same,TGI,HOP-62 NSCLC,28.5 µM
same,TGI,HS 578T breast,81.6 µM
same,TGI,HT29 colon,27.4 µM
same,TGI,IGROV1 ovarian,28.9 µM
same,TGI,K-562 leukemia,22.1 µM
same,TGI,KM12 colon,30.8 µM
same,TGI,LOX IMVI melanoma,21.6 µM
same,TGI,M14 melanoma,34.9 µM
same,TGI,MALME-3M melanoma,30.7 µM
same,TGI,MCF7 breast,21.6 µM
same,TGI,MDA-MB-435,28.6 µM
same,TGI,MDA-N,27 µM
same,TGI,MOLT-4 leukemia,45.1 µM
same,TGI,NCI-H226 lung,48.5 µM
same,TGI,NCI-H23 lung,45.5 µM
same,TGI,NCI-H460 lung,28.5 µM
same,TGI,NCI-H522 lung,23.2 µM
same,TGI,NCI/ADR-RES ovarian,40 µM
same,TGI,OVCAR-3 ovarian,26.6 µM
same,TGI,OVCAR-4 ovarian,24.8 µM
same,TGI,OVCAR-5 ovarian,27.6 µM
same,TGI,PC-3 prostate,36.4 µM
same,TGI,RPMI-8226 leukemia,57.1 µM
same,TGI,RXF 393 renal,27.2 µM
same,TGI,SF-268 CNS,27.8 µM
same,TGI,SF-295 CNS,46.8 µM
same,TGI,SF-539 CNS,30 µM
same,TGI,SK-MEL-2 melanoma,39 µM
same,TGI,SK-MEL-28 melanoma,31.7 µM
same,TGI,SK-MEL-5 melanoma,28 µM
same,TGI,SK-OV-3 ovarian,92.8 µM
same,TGI,SN12C renal,62.1 µM
same,TGI,SNB-19 CNS,31.2 µM
same,TGI,SR leukemia,54.2 µM
same,TGI,SW-620 colon,29.1 µM
same,TGI,T-47D breast,74.5 µM
same,TGI,TK-10 renal,28.9 µM
same,TGI,U251 CNS,> 100 µM
same,TGI,UACC-257 melanoma,37.6 µM
same,TGI,UACC-62 melanoma,29.4 µM
same,TGI,UO-31 renal,0.478 µM
